Consider eleven compounds from ChEMBL document CHEMBL4765330, “Synthesis of some steroidal mitocans of nanomolar cytotoxicity acting by apoptosis” (Eur J Med Chem, 2020).

For data set [1], the system named is HT-29. The data set can be described thus: Cytotoxicity against human HT29 cells assessed as reduction in cell viability incubated for 72 hrs by SRB assay. The format is functional, cell-based. (In general: In SRB staining, fixed cells bind dye roughly in proportion to their protein.)
Data set [2] deals with FaDu. The data set can be described thus: Cytotoxicity against human FaDu cells assessed as reduction in cell viability incubated for 72 hrs by SRB assay. Format: functional, cell-based.
The test system of data set [3] is NIH3T3. Briefly: Cytotoxicity against mouse NIH3T3 cells assessed as reduction in cell viability incubated for 72 hrs by SRB assay. Format: cell-based.
In data set [4] the test system is A-375. Briefly: Cytotoxicity against human A375 cells assessed as reduction in cell viability incubated for 72 hrs by SRB assay. The format is functional, cell-based.
For data set [5], the system named is MCF7. Briefly: Cytotoxicity against human MCF7 cells assessed as reduction in cell viability incubated for 72 hrs by SRB assay. The format is functional, cell-based.
For data set [6], the system named is A2780. Briefly: Cytotoxicity against human A2780 cells assessed as reduction in cell viability incubated for 72 hrs by SRB assay. The format is functional, cell-based.
A short description of data set [7]: in vitro. The following applies: mouse, NIH3T3 cells versus A2780 cells.
Description: Selectivity index, ratio of IC50 for mouse NIH3T3 cells to IC50 for human A2780 cells incubated for 72 hrs by SRB assay
Data set [8] is described as follows: Selectivity index, ratio of IC50 for mouse NIH3T3 cells to IC50 for human A375 cells incubated for 72 hrs by SRB assay. The format is toxicity. The following applies: NIH3T3 cells versus A375 cells, read-out: Ratio IC50.
The nature of data set [9]: in vitro. The following applies: mouse, NIH3T3 cells versus MCF7 cells.
Description: Selectivity index, ratio of IC50 for mouse NIH3T3 cells to IC50 for human MCF7 cells incubated for 72 hrs by SRB assay
Data set [10] in a line: in vitro. The following applies: mouse, NIH3T3 cells versus FaDu cells.
Description: Selectivity index, ratio of IC50 for mouse NIH3T3 cells to IC50 for human FaDu cells incubated for 72 hrs by SRB assay
For data set [11], the system named is A2780. Briefly: Cell cycle arrest in human A2780 cells assessed as accumulation at S phase after 48 hrs by PI staining based flow cytometric analysis (reference value: 34.22 %). The format is functional. A general note: Flow cytometry measures light scatter and fluorescence of single cells or particles in a stream.
The subject of data set [12] is A-375. Briefly: Induction of apoptosis in human A375 cells assessed as late apoptotic cells after 48 hrs by annexin V-FITC and propidium iodide staining based flow cytometric analysis. Format: functional.
In data set [13] the test system is A2780. The data set can be described thus: Cell cycle arrest in human A2780 cells assessed as apoptotic cells after 48 hrs by PI staining based flow cytometric analysis (reference value: 0.48 %). The format is functional.
For data set [14], the system named is A-375. The data set can be described thus: Induction of apoptosis in human A375 cells assessed as apoptotic cells after 48 hrs by annexin V-FITC and propidium iodide staining based flow cytometric analysis. The format is functional.
Data set [15] concerns A2780. The data set can be described thus: Cell cycle arrest in human A2780 cells assessed as accumulation at G1 phase after 48 hrs by PI staining based flow cytometric analysis (reference value: 54.53 %). The format is functional.
Data set [16] is described as follows: Drug uptake in nucleus of human A2780 cells at 0.054 mM incubated for 1 hr with compound and Hoechst 33342 and followed by further incubation with Rhodamine123 for 20 mins by fluorescence microscopic method. Format: ADME, subcellular. The following applies: a2780, 1.333 h, 54 µM, time 80 min.
In data set [17] the test system is A2780. The data set can be described thus: Cell cycle arrest in human A2780 cells assessed as accumulation at G2/M phase after 48 hrs by PI staining based flow cytometric analysis (reference value: 11.25 %). The format is functional.
In data set [18] the test system is A-375. Briefly: Induction of apoptosis in human A375 cells assessed as necrotic cells after 48 hrs by annexin V-FITC and propidium iodide staining based flow cytometric analysis. The format is functional.
Data set [19] can be described thus: Drug uptake in mitochondria of human A2780 cells at 0.054 mM incubated for 1 hr with compound and Hoechst 33342 and followed by further incubation with Rhodamine123 for 20 mins by fluorescence microscopic method. The format is ADME. The following applies: a2780, 1.333 h, 54 µM, time 80 min.
The nature of data set [20]: in vitro. The following applies: mouse, NIH3T3 cells versus HT29 cells.
Description: Selectivity index, ratio of IC50 for mouse NIH3T3 cells to IC50 for human HT29 cells incubated for 72 hrs by SRB assay
Where [21] appears, read: Homo sapiens, HT-29, 72 h, read-out: IC50.
Where [22] appears, read: Homo sapiens, FaDu, 72 h, read-out: IC50.
Where [23] appears, read: Mus musculus, NIH3T3, 72 h, read-out: IC50.
The mark [24] stands for this setting: Homo sapiens, A-375, 72 h, read-out: IC50.
Where [25] appears, read: Homo sapiens, MCF7, 72 h, read-out: IC50.
[26] abbreviates: Homo sapiens, A2780, 72 h, read-out: IC50.

Regarding `C[C@]12C=CC(=O)C=C1CC[C@@H]1[C@@H]2C(=O)C[C@@]2(C)[C@H]1CC[C@]2(O)C(=O)CO` [PREDNISONE], the IC50 in data set [1] (setting [21]), in [2] (setting [22]), in [3] (setting [23]), in data set [4] (setting [24]) and in data set [5] (setting [25]) was > 30000 nM in each case.

With `CCN(CC)c1ccc2c(-c3ccccc3C(=O)O[C@H]3CC[C@@]4(C)C(=CC[C@H]5[C@@H]6CC[C@H]([C@H](C)CCCC(C)C)[C@@]6(C)CC[C@@H]54)C3)c3ccc(=[N+](CC)CC)cc-3oc2c1.[Cl-]`, the IC50 result in data set [1] (ht-29), in data set [2] (fadu), in data set [3] (nih3t3), in data set [4] (a-375), in data set [6] (a2780) and in data set [5] (mcf7) was “Nd(Insoluble)” in each case.

As for `CCN(CC)c1ccc2c(-c3ccccc3C(=O)N3CCNCC3)c3ccc(=[N+](CC)CC)cc-3oc2c1`, the IC50 was > 30000 nM in data set [1] (setting [21]); > 30000 nM in data set [2] (setting [22]); > 30000 nM in [3] (setting [23]); > 30000 nM in [4] (setting [24]); 26400 nM in data set [6] (setting [26]); 17800 nM in data set [5] (setting [25]). Moreover, in data set [7], the selectivity ratio at 72 h worked out at 1.1.

With `C=C(c1ccc(C(=O)O)cc1)c1cc2c(cc1C)C(C)(C)CCC2(C)C` [BEXAROTENE], the IC50 in data set [1] (setting [21]) was > 30000 nM; in data set [2] (setting [22]), 29800 nM; in data set [3] (setting [23]) it was 18700 nM; in data set [4] (setting [24]), 28400 nM; in data set [6] (setting [26]), 26500 nM; in data set [5] (setting [25]), 10600 nM. In addition, the selectivity ratio at 72 h in [8] stood at 0.7; in [9], 1.8; in data set [7], 0.6; in [10] it was 0.6.

In the case of `CCN(CC)c1ccc2c(-c3ccccc3C(=O)O[C@H]3CC[C@H]4[C@@H]5CCC6=CC(=O)CC[C@]6(C)[C@H]5CC[C@]34C)c3ccc(=[N+](CC)CC)cc-3oc2c1.[Cl-]`, the Activity is listed as 44.74% in data set [11]; 12% in data set [12]; 3.29% in data set [13]; 5% in data set [14]; 51.77% in data set [15]; 3.48% in data set [17]. The Activity in [18] amounted to 20%. The IC50 came out at 120 nM in data set [1] (setting [21]); 200 nM in [2] (setting [22]); 200 nM in [3] (setting [23]); 160 nM in data set [4] (setting [24]); 80 nM in [6] (setting [26]); 60 nM in [5] (setting [25]). In addition, the Drug uptake result was “Not Active” in data set [16] and “Active” in data set [19]. The selectivity ratio at 72 h in data set [8] came to 1.1; in [20], 1.5; in data set [9], 3.1; in data set [7], 2.2; in [10] it was 1.

In the case of `CCN(CC)c1ccc2c(-c3ccccc3C(=O)OCC(=O)[C@@]3(O)CC[C@H]4[C@@H]5CCC6=CC(=O)C=C[C@@]6(C)[C@H]5C(=O)C[C@@]43C)c3ccc(=[N+](CC)CC)cc-3oc2c1.[Cl-]`, the Activity in data set [11] was 87.22%; in data set [12], 14%; in [13] it was 37.36%; in [14] it was 48%; in data set [15], 12.78%; in data set [17], 0%. Moreover, in data set [18], the Activity came out at 2%. For the same compound, the IC50 in data set [1] (setting [21]) came to 600 nM; in data set [2] (setting [22]) it was 400 nM; in data set [3] (setting [23]), 1800 nM; in data set [4] (setting [24]), 100 nM; in data set [6] (setting [26]) it was 300 nM; in [5] (setting [25]), 200 nM. Besides, the selectivity ratio at 72 h in [8] is 1.8; in data set [20], 2.9; in [9], 7.3; in data set [7] it was 5.2; in data set [10] it was 4.1.

Take `C[C@]12CC[C@H](O)C=C1CC[C@@H]1[C@@H]2CC[C@]2(C)C(c3cccnc3)=CC[C@@H]12`: the IC50 entry in [1] (ht-29), in data set [2] (fadu), in data set [3] (nih3t3), in data set [4] (a-375), in data set [6] (a2780) and in data set [5] (mcf7) was “Nd(Insoluble)” each time.

`C=C(c1ccc(C(=O)N2CCN(C(=O)c3ccccc3-c3c4ccc(=[N+](CC)CC)cc-4oc4cc(N(CC)CC)ccc34)CC2)cc1)c1cc2c(cc1C)C(C)(C)CCC2(C)C.[Cl-]`: the IC50 result in data set [1] (ht-29), in data set [2] (fadu), in [3] (nih3t3), in data set [4] (a-375), in [6] (a2780) and in data set [5] (mcf7) was “Nd(Insoluble)” each time.

With `COc1cccc2c1C(=O)c1c(O)c3c(c(O)c1C2=O)C[C@@](O)(C(=O)CO)C[C@@H]3O[C@H]1C[C@H](N)[C@H](O)[C@H](C)O1` [DOXORUBICIN], the figures for the IC50 in data set [1] (setting [21]), in [3] (setting [23]) and in data set [6] (setting [26]) were 900 nM, 400 nM and 10 nM, respectively.

In the case of `CCN(CC)c1ccc2c(-c3ccccc3C(=O)O[C@H]3CC[C@@]4(C)C(=CC[C@@H]5[C@@H]4CC[C@]4(C)C(c6cccnc6)=CC[C@@H]54)C3)c3ccc(=[N+](CC)CC)cc-3oc2c1`, the IC50 in [1] (setting [21]) is 200 nM; in data set [2] (setting [22]), 200 nM; in [3] (setting [23]), 300 nM; in data set [4] (setting [24]), 200 nM; in [6] (setting [26]), 100 nM; in [5] (setting [25]), 200 nM. Further, the selectivity ratio at 72 h is 1.7 in [8]; 1.1 in data set [20]; 1.6 in data set [9]; 1.8 in data set [7]; 1.8 in [10].

As for `CN[C@@H]1C[C@H]2O[C@@](C)([C@@H]1OC)n1c3ccccc3c3c4c(c5c6ccccc6n2c5c31)C(=O)NC4` [STAUROSPORINE], the IC50 in data set [3] (setting [23]) came out at 8 nM.

As a reminder, the IC50 is the concentration needed to halve the response being measured.
